Data taken from patent US20220226392A1, “COMPOSITIONS AND PROCESS FOR INTEGRATING CELLS INTO EPITHELIUM” (Medizinische Hochschule Hannover, priority 2019, published 2022).

Key:
[1] = test system: human primary venous endothelial cells; experiment: Integration of suspended eGFP-expressing iPSC-derived endothelial cells into an endothelial cell layer pre-treated with 17β-estradiol; type: cell-based
Description: A confluent layer of human primary venous endothelial cells cultivated in EGM-medium was used as a representative for endothelium. This endothelial cell layer was contacted with a first composition containing 17β-estradiol in a concentration yielding 100 μM 17β-estradiol in fresh cell culture medium. After incubating this endothelial cell layer under cell culture conditions for 30 min in the presence of 100 μM 17β-estradiol, the medium was removed and replaced by a suspension of iPSC-derived endothelial cells that were genetically manipulated to constitutively express enhanced green fluorescent green protein (eGFP) in EGM-medium without added 17β-estradiol.

[2] = test system: human primary venous endothelial cells; experiment: Loosening and regeneration of a confluent endothelial cell monolayer after contact with 17β-estradiol (phase contrast, anti-VE-cadherin and DAPI staining); type: cell-based
Description: As an example for an endothelium, human primary venous endothelial cells were cultivated in EGM-medium under cell culture conditions until reaching confluence. Then, the medium was removed from this exemplary epithelium and replaced by fresh EGM-medium containing 17β-estradiol in a concentration of 1 μM, 10 μM, 30 μM, 100 μM, or 300 μM. The concentrations of 17β-estradiol are also indicated in the rows of FIG. 1. […] Subsequent to the presence of the 17β-estradiol in medium, this first composition was removed and replaced by EGM-medium without added 17β-estradiol, with subsequent incubation for 4 h under cell culture conditions. The result is depicted in FIG. 1 in column C in phase contrast, and in column D after immunological staining for VE-cadherin as an essential component of adherens junctions between cells, and DAPI staining for nuclei.

[3] = test system: uterine human microvascular endothelial cells; conditions: 10 nM 17β-estradiol; cited from earlier work
[4] = test system: human umbilical vein endothelial cells; conditions: 10 nM 17β-estradiol; cited from earlier work

C[C@]12CC[C@@H]3c4ccc(O)cc4CC[C@H]3[C@@H]1CC[C@@H]2O [17β-estradiol]
integration of eGFP-labelled endothelial cells of the suspension into the endothelial layer ([1]; 100 μM 17β-estradiol for 30 min, then 4 h incubation with cell suspension without 17β-estradiol, FIG. 2 column B): efficiently integrate between the original endothelial cells | effect on endothelial cell layer and VE-cadherin expression ([1]; 100 μM 17β-estradiol, 30 min, FIG. 2 column A): loosening of the cell layer and loss of VE-cadherin expression | concentration at which the endothelial layer was loosened, respectively shows disintegration ([2]; 30 min in EGM-medium, tested 1, 10, 30, 100, 300 μM, FIG. 1 columns A, B): at least 10 μM | state of the endothelial layer after removal of 17β-estradiol ([2]; 4 h incubation in EGM-medium without 17β-estradiol after 30 min exposure, VE-cadherin and DAPI staining, FIG. 1 columns C, D): a closed layer of the endothelial cells is re-established | permeability for FITC-labelled dextran of monolayer [3]: increases the permeability | permeability for FITC-labelled dextran of monolayer [4]: increases the permeability
